Measured values taken from patent US5369111A, “Modulator agent and use thereof” (University of Vermont, priority 1992, dated 1994).
Entries after “also recorded” stand apart in the source; their conditions may differ. Read-outs that look alike come from different tables or passages of the source.

How the values were obtained:
[1] = Inhibition of population growth (cytotoxicity), S180 sarcoma, parental; assay type: cell-based, mouse; settings: mouse, s180 cells; S180; Table III; read-out: Modulator concentration (nontoxic concentration limit of the analog)
Source text: (§1) The analogs were examined in a panel of tumor cell lines of both intrinsic and acquired drug resistance, as described in Table 1. The rat colon adenocarcinoma cell lines RCC-2 and RCC-5 (ref. 13) were maintained in Ham's F12 medium supplemented with 5% heat-inactivated, fetal bovine serum (Sterile Systems. Hyclone, Logan, Utah). The two rat colon cancer cell lines differ in their degree of cellular differentiation; whereas the RCC-2 cell line is undifferentiated, the RCC-5 cell line is highly mucinous. The human epidermoid carcinoma cell line KB-3-1 and its MDR variant KB-Vl, selected by VBL treatment (ref. 14; courtesy of M. Gottesman. National Cancer Institute), was maintained in DMEM medium supplemented with 10%, heat-inactivated, fetal bovine serum. The murine sarcoma cell line […] and its MDR strains A3 and A10 selected by ADM treatment (ref. 15; courtesy of T. Tritton, Dept. Pharmacology, Univ. Vermont). were maintained in DMEM medium supplemented with 10% heat-inactivated, horse serum (Hazelton Biolog. Lenexa, Kans.). Stock cultures were subcultured twice weekly upon reaching the late exponential phase of population growth: population doubling times were 18-24 h. Antibiotics were not used in stock or experimental cultures. The MDR cell strains were grown in drug-free media for 48 h prior to experimental use.
(§2) Mid-exponential cultures were used for all assays. The RCC-2 and RCC-5 cell lines were seeded into 24-well plates at 2×10^4 cells/well and allowed to attach to the substratum for 16-18 h prior to treatment. The S180 cell lines were seeded into culture tubes at 1×10^5 cells/ml and treated immediately. Cytotoxicity was determined by quantitation of population growth after 72 h incubation by electronic particle counter (Coulter Electronics, Hialeah, Fla.). The human tumor cell lines were used in a clonogenic assay for cytotoxicity. Cells were seeded at 300 cells/dish, incubated overnight and then treated. Colonies were scored 7-11 days later. In all assays of analog modulation of drug sensitivity, the analog was added minutes prior to the addition of cytotoxic drug.

[2] = Inhibition of population growth (cytotoxicity), rat colon adenocarcinoma RCC-2; assay type: cell-based; settings: rat, rcc-2 cells; RCC-2; Table III; read-out: Modulator concentration (nontoxic concentration limit of the analog)
Source text: as §1, §2

[3] = system: parental cell lines (S180, RCC-2, RCC-5); assay: Modulation of intrinsic resistance in the parental cell lines (S180, RCC-2, RCC-5); assay type: cell-based, mouse, rat
Procedure: as §2
(§3) *calculated as the IC50 of the drug alone divided by the IC50 o
(§4) the [drug modulator] combination. Data are presented from tretments with
(§5) the nontoxic concentration limit of each analog as noted.

[4] = system: S180/A10 cells; assay: Modulator potency in MDR cells: reversal of acquired resistance, S180/A10; assay type: cell-based, murine; settings: for Modulator potency in MDR cells (minimal concentration restoring parental drug sensitivity), ADM: drug resistance level 90; for Modulator potency in MDR cells (minimal concentration restoring parental drug sensitivity), VBL: drug resistance level 10
Procedure: as §2
(§6) To evaluate the ability of vindoline and the two diastereoisomeric VBL analogs to modulate the MDR phenotype (acquired resistance) of the A3 and A10 cell stains, we determined the concentration of compound required to restore drug sensitivities to parental levels. This was done by exposing the MDR cell line to a concentration range of modulator in the presence VBL, VCR and ADM at the respective IC70s of the parental cell line. The cytotoxicity curves for A3 and A10 cells, shown in FIG. 5, are distinctive among the three vinca alkaloids examined. In each cell line, there was a minimum concentration of modulator that elicited 70% growth inhibition for each drug - i.e. the reversing concentration.
(§7) *The minimal concentration of modulator required to restore the drug
(§8) sensitivity of S180/MDR cell strains to that of parental S180 cells. Data
(§9) are the averages of 2-3 separate experiments, S.D. ≤20%.

[5] = system: S180/A3 cells; assay: Modulator potency in MDR cells: reversal of acquired resistance, S180/A3; assay type: cell-based, murine; settings: for Modulator potency in MDR cells (minimal concentration restoring parental drug sensitivity), VBL: drug resistance level 3; for Modulator potency in MDR cells (minimal concentration restoring parental drug sensitivity), VCR: drug resistance level 7
Procedure: as §2, §6, §7, §8, §9

[6] = system: S180/MDR cell system and rat colon cancer cell lines; assay: Cytotoxicity in the S180/MDR cell system and the rat colon cancer cell lines; assay type: cell-based, mouse; settings: S-180, 72 h
Source text: as §1, §2

[7] = system: S180 cells, parental; assay: Modulation of intrinsic drug resistance, parental S180; assay type: cell-based, murine; settings: for Maximum sensitization of parental cells by modulator, drug ADM / Maximum sensitization of parental cells by modulator, drug VBL / Maximum sensitization of parental cells by modulator, drug VCR: S180, IC50 drug alone / IC50 drug + modulator, at nontoxic concentration limit; for modulation of sensitivity of parental S180 cells to VBL, VCR and ADM (in words): all three drugs
Procedure: as §2
The ability of the compounds to modulate drug sensitivity in parental cells was studied over a range of concentrations of each compound, from 10^-6 M to the non-toxic (IC10-20) or solubility limit. […] From such experiments, we determined a sensitivity index derived from the IC50 of the drug without modulator treatment divided by the drug IC50 at each concentration of modulator.
When the sensitivity index for each drug, VBL, VCR and ADM is plotted versus the modulator concentration (FIG. 4), we can compare the relative potencies of the compounds as modulators of drug toxicity to the parental S180 cells.
as §3, §4
FIG. 4 represents the potency of the vinca alkaloid compounds as modulators of drug sensitivity in S180 cells. The enhancement of sensitivity was calculated as the sensitivity index=IC50 of the drug alone divided by the IC50 of the drug+modulator. The IC50s for ADM (o) VBL (Δ), or VCR (.quadrature.) were determined over a concentration range of each modulator from data such as those depicted in FIG. 3. The values presented were averaged from duplicate samples of two separate experiments, S.D. <15% of the mean.

[8] = Inhibition of population growth (cytotoxicity), rat colon adenocarcinoma RCC-5; assay type: cell-based; settings: rat, rcc-5 cells; RCC-5; Table III; read-out: Modulator concentration (nontoxic concentration limit of the analog)
Source text: as §1, §2

[9] = system: S180 MDR cell strains A3 and A10; assay: Modulation of acquired drug resistance in the S180 MDR cell strains A3 and A10; assay type: cell-based, murine
Procedure: as §2, §6
FIG. 5 represents the modulation of multidrug resistance in the MDR cell strains by the vinca alkaloids. Vindoline (A), vincovaline (B), or the analog C-20'-deoxy vincovaline (C) was added, at various concentrations, to A3 (closed symbols) or A10 (opened symbols) cell cultures containing the parental IC70 of each drug: 2.0×10^-7 M. ADM (circles: 1.5×10^-8 M VBL (triangles); and 4.5×10^-8 M; VCR (squares). Population growth was determined 72 hours later.
FIG. 6 represents the relationship between cellular drug resistance level and the minimal modulator concentration required for complete reversal of drug resistance. The drugs examined were ADM (o), VBL (Δ), and VCR (.quadrature.). The amount (concentration) of modulator, necessary to reverse each level of drug resistance contained in the A3 and A10 cell lines, was determined from data such as those of FIG. 5. The values presented were averaged from duplicate samples of two separate experiments, S.D.<15% of the mean. The arrows denote the non-toxic concentration limit for the modulator; in the case of Vincovaline this value is dependent on the MDR cell strain, 2×10^-5 M, A3; 5×10^-5 M. A10.
FIG. 11 represents the modulation of multidrug resistance in the S180 MDR cell strains A3 and A10. The cellular drug resistance level is plotted against the minimal concentration of C-20'-deoxy deethyl vincovaline required for the complete reversal of drug resistance to ADM (o), VBL (Δ), and VCR (.quadrature.). In the case of high level ADM resistance […], the sensitivity of the cells was restored to 80% of the parental value. The arrow denotes the non-toxic concentration limit of the analog.

[10] = system: RCC-2 cells; assay: Modulation of intrinsic drug resistance, RCC-2; assay type: cell-based, rat; settings: IC50 drug alone / IC50 drug + modulator, at nontoxic concentration limit
Procedure: as §2, §3, §4, §5

[11] = system: RCC-5 cells; assay: Modulation of intrinsic drug resistance, RCC-5; assay type: cell-based, rat; settings: RCC-5; IC50 drug alone / IC50 drug + modulator, at nontoxic concentration limit
Procedure: as §2, §3, §4, §5
FIG. 9 represents the modulation of VCR sensitivity in the RCC-12 (A) and RCC-5 (B) cell lines by the analog C-20'-deoxy deethyl vincovaline. Population growth was determined after 72 hours incubation in the absence (o), or presence of 10 μM (o), 20 μM (Δ), or 50 μM of analog. Data presented are from a typical experiment.

[12] = system: S180 cell system (S180, A3, A10); assay: Inherent cytotoxicity in the S180 cell system (S180, A3, A10); assay type: cell-based, murine
Source text: as §1, §2
FIG. 2 represents the toxicity of the vinca alkaloid compounds to population growth. Vindoline, vincovaline or the analog, C-20'-deoxy vincovaline was added, at various concentrations, to S180 (.cndot.), A3 (o), or A10 (Δ) cell cultures. The population cell number was determined 72 hours later.

| SMILES | MNTC at 72 h [1] [µM] | MNTC at 72 h [2] [µM] | modulation of intrinsic cellular resistance to ADM and/or VCR (in words) [3] | effect on the sensitivity of parental cells to VBL (in words) [3] | Modulator potency in MDR cells (minimal concentration restoring parental drug sensitivity), ADM [4] | Modulator potency in MDR cells (minimal concentration restoring parental drug sensitivity), VBL [4] [μM] | Modulator potency in MDR cells (minimal concentration restoring parental drug sensitivity), VBL [5] [µM] | Modulator potency in MDR cells (minimal concentration restoring parental drug sensitivity), VCR [5] [μM] | IC50 [6] [µM] | Maximum sensitization of parental cells by modulator, drug ADM [7] | Maximum sensitization of parental cells by modulator, drug VBL [7] | Maximum sensitization of parental cells by modulator, drug VCR [7] | MNTC at 72 h [8] [µM] | restoration of parental drug sensitivity in MDR cells (in words) ([9]; VBL, VCR, ADM) | Maximum sensitization of parental cells by modulator, drug VCR [10] | Maximum sensitization of parental cells by modulator, drug ADM [11] | Maximum sensitization of parental cells by modulator, drug VBL [11] | Maximum sensitization of parental cells by modulator, drug VCR [11] | further results |
| --- | --- | --- | --- | --- | --- | --- | --- | --- | --- | --- | --- | --- | --- | --- | --- | --- | --- | --- | --- |
| CC[C@]12C=CCN3CC[C@@]4(c5cc([C@@]6(C(=O)OC)C[C@H]7CCCN(CCc8c6[nH]c6ccccc86)C7)c(OC)cc5N(C)[C@H]4[C@@](O)(C(=O)OC)[C@@H]1OC(C)=O)[C@@H]32 [analog n° 330, C-14'-epi-C-20'-deethyl C-20'-deoxy-vinblastine] | 20 | 10 | modulated intrinsic cellular resistance to ADM and/or VCR | less effect on the sensitivity of parental cells to VBL | no effect | 18. | 5.2 | 11. | ≥ 5 | 4.2 | 1.0 | 2.0 | 10 | full restoration of parental drug sensitivity was achieved for VBL and low level VCR resistance, only | 2.0 | 2.2 | 2.0 | 6.0 | Maximum sensitization of parental cells by modulator, drug ADM [10]: 1.0 |
| CC[C@]12C=CCN3CC[C@@]4(c5cc([C@]6(C(=O)OC)C[C@@H]7CCCN(CCc8c6[nH]c6ccccc86)C7)c(OC)cc5N(C)[C@H]4[C@@](O)(C(=O)OC)[C@@H]1OC(C)=O)[C@@H]32 [analog n° 331, C-16' epi-C-20'-deoxy-C-20'-deethylvinblastine] | 50 | 10 | modulated intrinsic cellular resistance to ADM and/or VCR | less effect on the sensitivity of parental cells to VBL | no effect | 34. | 5.0 | 10. | ≥ 5 | 3.4 | 1.0 | 2.5 | 20 | full restoration of parental drug sensitivity was achieved for VBL and low level VCR resistance, only | 2.0 | 3.5 | 1.0 | 2.0 |  |
| CCC12C=CCN3CC[C@@]4(c5ccc(OC)cc5N(C)[C@H]4[C@@](O)(C(=O)OC)[C@@H]1OC(C)=O)[C@@H]32 (stereo partly drawn) [vindoline, reference compound] |  |  |  |  |  |  |  |  |  |  |  |  |  |  |  |  |  |  | reversal of high level ADM resistance (in words) ([4]; A10 cells, 90 fold ADM resistance): limited in this activity by their own cytoxicity in the MDR cell lines; inherent cytotoxicity / resistance profile (in words) [12]: equitoxic to parental and MDR cell lines; IC50 ([12]; Mus musculus, S-180, S180 parental and MDR cell lines, read-out: IC50 (inhibition of cell growth)): 40 µM; inherent cytotoxicity / resistance profile (in words) ([12]; S180, A3, A10): inhibited the growth of the parental and MDR cell strains with a similar dependence on concentration; modulation of sensitivity of parental S180 cells to VBL, VCR and ADM (in words) [7]: sensitized S180 cells to all three drugs with a similar dependence on its concentration; also recorded: sensitized the parental S180 cells to all three drugs; modulation of sensitivity of parental S180 cells to VBL, VCR and ADM (in words) ([7]; listed as Vindoline): no evidence of selective modulation; modulation of cellular resistance to VBL, VCR and ADM in MDR cell strains (in words) ([9]; A3 and A10): modulators of cellular resistance to VBL, VCR and ADM; relation of reversing concentration to degree of drug resistance (in words) ([9]; A3 and A10, VBL, VCR, ADM): This correllation was not observed |
